Where “and” joins values, the source holds several entries; their conditions need not be identical. Equal values may be shown once.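 A five-concentration, 48-hour dose response in 96-well plates underlies each endpoint, interpolated linearly between surrounding concentrations. The concentration for 50% growth inhibition is given as GI50. The concentration for full growth arrest is given as TGI.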
System: MDA-MB-468 breast
Assay: growth of human tumour cells (NCI), 48 h

SMILES: C=C1C(=O)O[C@H]2[C@H]1CC/C(COC(=O)NCc1cn(C)c3ccccc13)=C\CC[C@@]1(C)O[C@@H]21
- GI50: 836 nM
- TGI: 2950 nM

SMILES: CC(C)(C)OC(=O)N1CCN(CCn2cc(C(F)(F)F)c3c(Cl)ncnc32)CC1
- GI50: 1920 nM
- TGI: 3770 nM

SMILES: Nc1c(C(=O)c2cccc(-c3ccncc3)c2)cnn1-c1ccc(F)cc1F
- GI50: 2180 nM
- TGI: 17900 nM

SMILES: CC(C)(C)c1ccc(Oc2nccc(-c3c(-c4ccc(F)cc4)ncn3C3CCNCC3)n2)cc1
- GI50: 2580 nM
- TGI: 5970 nM

SMILES: COc1ccc(C(=O)OC2C(OC3C(O)COC(O[C@H]4C[C@H]5[C@@H]6CC=C7C[C@@H](O)CC[C@]7(C)[C@H]6CC[C@]5(C)[C@H]4[C@H](C)C(=O)CCC(C)C)C3OC(N)=O)OCC(O)C2O)cc1 (stereo not given in full)
- GI50: 78.1 nM
- TGI: 1600 nM

SMILES: Cc1cc(O)c(C(C)C)cc1S(=O)(=O)O (tested in a mixture with another compound)
- GI50: 273 nM
- TGI: 1180 nM

SMILES: COc1ccc2[nH]c(O)c(N=NC(=O)c3oc4ccccc4c3C)c2c1
- GI50: 2600 nM
- TGI: 6530 nM

SMILES: COc1cc(NC(C)CCCNC2CN3CCC2CC3)c2ncccc2c1 (stereo not given)
- GI50: 1710 nM
- TGI: 3840 nM

SMILES: O=C(CCCCCCC(=O)Nc1ccccc1)NO
- GI50: 361 nM and 899 nM
- TGI: 12300 nM and 10800 nM

SMILES: C[C@H]1[C@H](C)CC[C@]2(CO)CC[C@]3(C)C(=CC[C@@H]4[C@@]5(C)CCCNC(C)(C)[C@@H]5CC[C@]43C)[C@H]12
- GI50: 1700 nM
- TGI: 3440 nM

SMILES: CC(C)[C@H](N)C(=O)N1CCC[C@H]1B(O)O
- GI50: > 100000 nM
- TGI: > 100000 nM

SMILES: CN(C)CCN1C(=O)c2ccccc2N(C)c2ccccc21
- GI50: > 100000 nM
- TGI: > 100000 nM

SMILES: C#C[C@]1(O)CC[C@H]2[C@@H]3CC=C4c5sc(Nc6ccncc6)nc5CC[C@]4(C)[C@H]3CC[C@@]21C
- GI50: 477 nM
- TGI: 2270 nM

SMILES: C=C(C)C(=O)Nc1ccc(NC(C)C)cc1
- GI50: > 100000 nM
- TGI: > 100000 nM

SMILES: CCN(CC)CCCC(C)Nc1ccnc2cc(Oc3ccccc3)ccc12 (stereo not given)
- GI50: 3060 nM and 3950 nM
- TGI: 13300 nM and 15100 nM

SMILES: CCN(CC)CCCCNc1c2ccccc2[n+](C)c2c1[nH]c1ccccc12
- GI50: 222 nM
- TGI: 4850 nM

SMILES: O=C(CCCCCCCCC(=O)N/N=C\c1ccccc1O)N/N=C\c1ccccc1O
- GI50: 1620 nM
- TGI: 5230 nM

SMILES: COC(=O)c1nc(-c2ccccc2)oc1S(=O)(=O)Cc1ccccc1
- GI50: 1850 nM
- TGI: 4020 nM

SMILES: Cc1c(C(N)=O)sc2c1C(=O)N(Cc1ccccc1)C1=NN=C(c3ccc(Cl)cc3)CN12
- GI50: 1930 nM
- TGI: 7540 nM

SMILES: CC(C)(C)n1cc(-c2ccnc(NCCCNS(=O)(=O)c3ccc(C(F)(F)F)cc3)c2)c(-c2cccc(O)c2)n1
- GI50: 1880 nM
- TGI: 4060 nM

SMILES: COc1cc(CSc2nc3ccc(C)cc3c(=O)n2-c2ccccc2)cc(OC)c1OC
- GI50: 266 nM
- TGI: 2110 nM

SMILES: O=C(NNc1nc2cc(F)ccc2n2c(CO)ccc12)c1cnccn1
- GI50: 448 nM
- TGI: 3340 nM

SMILES: COc1ccc(-c2c[nH]c(C(=O)O)c2-c2cc(OC)c(OC)c(OC)c2)cc1
- GI50: 2240 nM
- TGI: 6780 nM

SMILES: COc1c(C)c2c(c(O)c1C/C=C(\C)CCC(=O)O)C(=O)OC2
- GI50: 515 nM
- TGI: > 100000 nM

SMILES: FC(F)(F)c1ccc(Nc2nc(-c3c(C(F)(F)F)nc4ccccn34)cs2)cc1
- GI50: 160 nM
- TGI: 1040 nM

— PubChem BioAssay (NCI)
